# Reference: ChEMBL document CHEMBL3585283, “Synthesis and evaluation of a series of quinolinyl trans-cyanostilbene analogs as anticancer agents” (2014)
# The source made the active and inactive calls. No cut-off for these calls is given here.
# Columns and labels:
# SK-MEL-5 = test: Antitumor activity against human SK-MEL-5 cells after 48 hrs; assay type: functional; conditions: SK-MEL-5, 48 h
# HCT-15 = test: Antitumor activity against human HCT15 cells after 48 hrs; assay type: functional; conditions: HCT-15, 48 h
# [1] = Antitumor activity against human MOLT4 cells after 48 hrs; assay type: functional; conditions: MOLT-4, 48 h
# SF-268 = test: Antitumor activity against human SF268 cells after 48 hrs; assay type: functional; conditions: SF-268, 48 h
# [2] = Antitumor activity against human RXF393 cells after 48 hrs; assay type: functional; conditions: RXF 393, 48 h
# UO-31 = test: Antitumor activity against human UO31 cells after 48 hrs; assay type: functional; conditions: UO-31, 48 h
# KM12 = test: Antitumor activity against human KM12 cells after 48 hrs; assay type: functional; conditions: KM12, 48 h
# SK-MEL-2 = test: Antitumor activity against human SK-MEL-2 cells after 48 hrs; assay type: functional; conditions: SK-MEL-2, 48 h
# CCRF-CEM = test: Antitumor activity against human CCRF-CEM cells after 48 hrs; assay type: functional
# [3] = Antitumor activity against human SF295 cells after 48 hrs; assay type: functional; conditions: SF-295, 48 h
# NCI-H226 = test: Antitumor activity against human NCI-H226 cells after 48 hrs; assay type: functional; conditions: NCI-H226, 48 h
# [4] = Antitumor activity against human NCI-ADR-RES cells after 48 hrs; assay type: functional
# [5] = Antitumor activity against human LOXIMVI cells after 48 hrs; assay type: functional; conditions: LOX IMVI
# U-251 = test: Antitumor activity against human U251 cells after 48 hrs; assay type: functional; conditions: U-251, 48 h
# OVCAR-4 = test: Antitumor activity against human OVCAR4 cells after 48 hrs; assay type: functional; conditions: OVCAR-4, 48 h
# [6] = Antitumor activity against human Hs578T cells after 48 hrs; assay type: functional; conditions: Hs-578T
# MDA-MB-231 = test: Antitumor activity against human MDA-MB-231 cells after 48 hrs; assay type: functional; conditions: MDA-MB-231, 48 h
# SW-620 = test: Antitumor activity against human SW620 cells after 48 hrs; assay type: functional
# SN12C = test: Antitumor activity against human SN12C cells after 48 hrs; assay type: functional
# PC-3 = test: Antitumor activity against human PC3 cells after 48 hrs; assay type: functional; conditions: PC-3, 48 h
# [7] = Antitumor activity against human HCC2998 cells after 48 hrs; assay type: functional; conditions: HCC 2998, 48 h
# SR = test: Antitumor activity against human SR cells after 48 hrs; assay type: functional
# SNB-19 = test: Antitumor activity against human SNB19 cells after 48 hrs; assay type: functional; conditions: SNB-19, 48 h
# EKVX = test: Antitumor activity against human EKVX cells after 48 hrs; assay type: functional, cell-based
# NCI-H522 = test: Antitumor activity against human NCI-H522 cells after 48 hrs; assay type: functional; conditions: NCI-H522, 48 h
# MDA-MB-468 = test: Antitumor activity against human MDA-MB-468 cells after 48 hrs; assay type: functional; conditions: MDA-MB-468, 48 h
# DU-145 = test: Antitumor activity against human DU145 cells after 48 hrs; assay type: functional; conditions: DU-145, 48 h
# [8] = Antitumor activity against human SF539 cells after 48 hrs; assay type: functional; conditions: SF-539, 48 h
# A498 = test: Antitumor activity against human A498 cells after 48 hrs; assay type: functional; conditions: A498, 48 h
# UACC-62 = test: Antitumor activity against human UACC62 cells after 48 hrs; assay type: functional; conditions: UACC-62, 48 h
# OVCAR-5 = test: Antitumor activity against human OVCAR5 cells after 48 hrs; assay type: functional; conditions: OVCAR-5, 48 h
# HOP-62 = test: Antitumor activity against human HOP62 cells after 48 hrs; assay type: functional; conditions: HOP-62, 48 h
# [9] = Antitumor activity against human RPMI8226 cells after 48 hrs; assay type: functional; conditions: RPMI-8226, 48 h
# A549 = test: Antitumor activity against human A549 cells after 48 hrs; assay type: functional; conditions: A549, 48 h
# 786-0 = test: Antitumor activity against human 786-0 cells after 48 hrs; assay type: functional; conditions: 786-0, 48 h
# HL-60(TB) = test: Antitumor activity against human HL-60(TB) cells after 48 hrs; assay type: functional; conditions: HL-60, 48 h
# NCI-H460 = test: Antitumor activity against human NCI-H460 cells after 48 hrs; assay type: functional; conditions: NCI-H460, 48 h
# [10] = Antitumor activity against human HOP92 cells after 48 hrs; assay type: functional; conditions: HOP-92, 48 h
# NCI-H322M = test: Antitumor activity against human NCI-H322M cells after 48 hrs; assay type: functional
# [11] = Antitumor activity against human COLO205 cells after 48 hrs; assay type: functional; conditions: COLO 205, 48 h
# SK-OV-3 = test: Antitumor activity against human SKOV3 cells after 48 hrs; assay type: functional; conditions: SK-OV-3, 48 h
# Malme-3M = test: Antitumor activity against human MALME-3M cells after 48 hrs; assay type: functional
# NCI-H23 = test: Antitumor activity against human NCI-H23 cells after 48 hrs; assay type: functional; conditions: NCI-H23, 48 h
# HCT-116 = test: Antitumor activity against human HCT116 cells after 48 hrs; assay type: functional; conditions: HCT-116, 48 h
# CAKI-1 = test: Antitumor activity against human Caki1 cells after 48 hrs; assay type: functional; conditions: CAKI-1, 48 h
# OVCAR-8 = test: Antitumor activity against human OVCAR8 cells after 48 hrs; assay type: functional; conditions: OVCAR-8, 48 h
# MDA-MB-435 = test: Antitumor activity against human MDA-MB-435 cells after 48 hrs; assay type: functional; conditions: MDA-MB-435, 48 h
# IGROV-1 = test: Antitumor activity against human IGROV1 cells after 48 hrs; assay type: functional; conditions: IGROV-1, 48 h
# ACHN = test: Antitumor activity against human ACHN cells after 48 hrs; assay type: functional
# TK-10 = test: Antitumor activity against human TK10 cells after 48 hrs; assay type: functional; conditions: TK-10, 48 h
# MCF7 = test: Antitumor activity against human MCF7 cells after 48 hrs; assay type: functional; conditions: MCF7, 48 h
# M14 = test: Antitumor activity against human M14 cells after 48 hrs; assay type: functional; conditions: M14, 48 h
# OVCAR-3 = test: Antitumor activity against human OVCAR3 cells after 48 hrs; assay type: functional; conditions: OVCAR-3, 48 h
# SK-MEL-28 = test: Antitumor activity against human SK-MEL-28 cells after 48 hrs; assay type: functional; conditions: SK-MEL-28, 48 h
# SNB-75 = test: Antitumor activity against human SNB75 cells after 48 hrs; assay type: functional; conditions: SNB-75, 48 h
# K562 = test: Antitumor activity against human K562 cells after 48 hrs; assay type: functional; conditions: K562, 48 h
# T47D = test: Antitumor activity against human T47D cells after 48 hrs; assay type: functional
# HT-29 = test: Antitumor activity against human HT-29 cells after 48 hrs; assay type: functional; conditions: HT-29, 48 h
# [12] = Antitumor activity against human BT549 cells after 48 hrs; assay type: functional; conditions: BT-549, 48 h
structure (smiles),measurement,setting,value
COc1cc(/C(C#N)=C/c2cnc3ccccc3c2)cc(OC)c1OC,GI50,SK-MEL-5,410 nM
same,GI50,HCT-15,1080 nM
same,GI50,[1],3200 nM
same,GI50,SF-268,9170 nM
same,GI50,[2],579 nM
same,GI50,UO-31,580 nM
same,GI50,KM12,436 nM
same,GI50,SK-MEL-2,1050 nM
same,GI50,CCRF-CEM,1380 nM
same,GI50,[3],556 nM
same,GI50,NCI-H226,> 100000 nM
same,GI50,[4],343 nM
same,GI50,[5],645 nM
same,GI50,U-251,1700 nM
same,GI50,OVCAR-4,13800 nM
same,GI50,[6],1310 nM
same,GI50,MDA-MB-231,2830 nM
same,GI50,SW-620,inactive
same,GI50,SN12C,1940 nM
same,GI50,PC-3,1080 nM
same,GI50,[7],2010 nM
same,GI50,SR,569 nM
same,GI50,SNB-19,5230 nM
same,GI50,EKVX,inactive
same,GI50,NCI-H522,299 nM
same,GI50,MDA-MB-468,870 nM
same,GI50,DU-145,1510 nM
same,GI50,[8],361 nM
same,GI50,A498,678 nM
same,GI50,UACC-62,478 nM
same,GI50,OVCAR-5,3940 nM
same,GI50,HOP-62,10300 nM
same,GI50,[9],2060 nM
same,GI50,A549,680 nM
same,GI50,786-0,6290 nM
same,GI50,HL-60(TB),329 nM
same,GI50,NCI-H460,2050 nM
same,GI50,[10],403 nM
same,GI50,NCI-H322M,27400 nM
same,GI50,[11],374 nM
same,GI50,SK-OV-3,1340 nM
same,GI50,Malme-3M,691 nM
same,GI50,NCI-H23,2930 nM
same,GI50,HCT-116,464 nM
same,GI50,CAKI-1,346 nM
same,GI50,OVCAR-8,3410 nM
same,GI50,MDA-MB-435,227 nM
same,GI50,IGROV-1,3150 nM
same,GI50,ACHN,911 nM
same,GI50,TK-10,2550 nM
same,GI50,MCF7,429 nM
same,GI50,M14,540 nM
same,GI50,OVCAR-3,263 nM
same,GI50,SK-MEL-28,3270 nM
same,GI50,SNB-75,1490 nM
same,GI50,K562,444 nM
same,GI50,T47D,9540 nM
same,GI50,HT-29,421 nM
same,GI50,[12],1430 nM
